Results taken from patent publication US8785380B2 (priority 2011, dated 2014).

Experiments:
[1] = In vitro release of curcumin at pH 6.8 and pH 1.2, 37 °C; type: physicochemical; details: for Cumulative percent of release of curcumin: 37 °C, after 24 hour
Procedure: Each data point is an average of 3 measurements (n=3) performed under identical conditions. […] Studies were performed in triplicate and mean cumulative percentage of released curcumin was calculated and plotted against time. […] This could be attributed to the very slow initial swelling of polysaccharide chains in water and its further dissolution to allow the leaching of entrapped curcumin into the solution in the dissolution flask.

[2] = male, Wistar albino, rat, in vivo, po, 250 mg/kg
Procedure: Concentration was determined by HPLC/PDA detection.
[…] blood was collected after each time point, ca. 0, 0.5, 1, 3, 5, 10 and 24 hours respectively into heparinized tubes and centrifuged at 6000×g for 15 minutes. Plasma was decanted and stored at −80° C. until analysis. […] Briefly, 1 mL of plasma was extracted with 3×10 mL of ethyl acetate and is dried over anhydrous sodium sulphate and evaporated to dryness. The residue was then made up to 10 mL with methanol and 20 μL was injected to Shimadzu model LC-20 AT HPLC fitted with a PDA detector model M20A using a reverse phase C18 column (Phenomenex 250×4.6 mm, 5μ) and methanol mobile phase monitored at 420 nm.
Curcuminoid retention time was confirmed by repeated 10 analyses at 50 mg level on same column under identical conditions. […] Analysis was performed by incorporating a Waters Alliance LC fitted with Waters 3100 ESI mass detector.

[3] = human, in vivo, po
Procedure: The enhancement of bioavailability was also tested on human volunteers of age group between 25 to 50, who were healthy and not involved in any medication or health supplementation. The volunteers were not allowed to take turmeric-containing food for two days prior to the test.
6 mL blood of each volunteer was withdrawn at 0, 0.5, 1, 3, 5, 8 and 24 hours respectively and plasma samples were deep-frozen at −80° C. till analysis.

curcumin dissolved ([1]; after 24 hours): around 0.4%
Cumulative percent of release of curcumin ([1]; pH 1.2 0.1M HCl): 0.06%
Cumulative percent of release of curcumin ([1]; pH 6.8 phosphate buffer): 0.08%
Tmax (time taken to reach maximum concentration in plasma) [2]: 3 h
time of maximum absorption of curcuminoids in the plasma [3]: around 30 min
SMILES: COc1cc(/C=C/C(=O)CC(=O)/C=C/c2ccc(O)c(OC)c2)ccc1O [unformulated curcumin, curcumin]
